In patent US20210261618A1 (TAIAN CITY QIHANG BIOTECHNOLOGY CO., priority 2018, published 2021):
Read-outs that look alike come from different tables or passages of the source. Where no end group is shown, it is not given here.

Tests used:
[1] = test system: transplanted tumor cells of human osteosarcoma MG63; details: xenograft tumor after 4 weeks of administration; taxol group, each dose group of sp2
Protocol: 2. AnnexinV-FITC cell apoptosis (annexinV)
2) 50,000-100,000 resuspended cells was taken, and centrifuged at 1000 g for 5 min. The supernatant was discarded, and 195 μl of AnnexinV-FITC binding solution was added to gently resuspend the cells.
6) Immediately flow cytometry detection was performed, wherein AnnexinV-FITC was green fluorescence, and PI was red fluorescence.

[2] = in vivo; details: both, Kunming, mouse, iv, 2000 mg/kgBW
[3] = Kunming mice
[4] = 1 d after 2000 mg/kgBW tail vein
[5] = 3 d after 2000 mg/kgBW tail vein
[6] = 5 d after 2000 mg/kgBW tail vein
[7] = 7 d after 2000 mg/kgBW tail vein
[8] = 9 d after 2000 mg/kgBW tail vein
[9] = 11 d after 2000 mg/kgBW tail vein
[10] = 13 d after 2000 mg/kgBW tail vein

| Compound | tumor cell apoptosis compared to the model group [1] | NOAEL at 336 h [2] | animal weight, female (group value) [3, 4] | animal weight, male (group value) [3, 4] | animal weight, female (group value) [3, 5] | animal weight, male (group value) [3, 5] | animal weight, female (group value) [3, 6] | animal weight, male (group value) [3, 6] | animal weight, female (group value) [3, 7] | animal weight, male (group value) [3, 7] | animal weight, female (group value) [3, 8] | animal weight, male (group value) [3, 8] | animal weight, female (group value) [3, 9] | animal weight, male (group value) [3, 9] | animal weight, female (group value) [3, 10] | animal weight, male (group value) [3, 10] | maximum non-toxic dose administered intravenously ([3]; tail vein, observed 14 days) |
| --- | --- | --- | --- | --- | --- | --- | --- | --- | --- | --- | --- | --- | --- | --- | --- | --- | --- |
| CC(=O)O[C@H]1C(=O)[C@@]2(C)[C@H]([C@H](OC(=O)c3ccccc3)[C@]3(O)C[C@H](OC(=O)[C@H](O)[C@@H](NC(=O)c4ccccc4)c4ccccc4)C(C)=C1C3(C)C)[C@]1(OC(C)=O)CO[C@@H]1C[C@@H]2O [taxol] | increase the tumor cell apoptosis rate (P<0.05) | – | – | – | – | – | – | – | – | – | – | – | – | – | – | – | – |
| RVLNGPEEEAAAPAE [sp2] | – | 2000 mg/kg | 26.458 | 27.565 | 28.245 | 31.131 | 29.135 | 33.177 | 30.603 | 35.699 | 31.884 | 37.611 | 33.355 | 38.017 | 33.25 | 38.456 | 2000 mg/kgBW |
